According to patent US20240101576A1, “HETEROCYCLIC INHIBITORS OF EGFR AND/OR HER2, FOR USE IN THE TREATMENT OF CANCER” (Scorpion Therapeutics, Inc., priority 2020, published 2024):
pIC50: −log10 of the molar value.

Columns and labels:
Type in all cases: cell-based
[1] = target: T1, EGFR WT (Ba/F3 cells) (Homo sapiens, UniProt P00533); assay: Inhibitor activity on EGFR-dependent cell growth (CellTiter-Glo, 72 h), Ba/F3 EGFR WT; conditions: read-out: BaF3 WT IC50
T1 construct: expressed in transfected cells; host or cells: Ba/F3 (murine pro-B cells), retroviral transduction, puromycin selection, maintained with EGF
How it was run: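 This growth assay used Ba/F3 cells that depend on wild-type EGFR and are kept in EGF without IL3. Compounds were made up as 10 mM DMSO stocks and diluted 3-fold over 10 points. 120 nL went onto 600 cells/well. After 72 hours, 40 μL CellTiter-Glo was added and luminescence read on EnVision after 30 min.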

[2] = target: T2, EGFR exon 19del (Ba/F3 cells) (Homo sapiens, UniProt P00533); assay: Inhibitor activity on EGFR phosphorylation (pEGFR AlphaLISA, 2 h), Ba/F3 EGFR exon 19del; conditions: read-out: Del19 IC50 (pEGFR)
How it was run: (§1)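 Cellular EGFR autophosphorylation assay. IL3-independent Ba/F3 transductants or CUTO14 cells are incubated with serially diluted compound (3-fold, 10 points) for 2 h, then lysed and pEGFR quantified by AlphaLISA.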

[3] = target: T3, EGFR L858R/C797S (Ba/F3 cells) (Homo sapiens, UniProt P00533, C797S/L858R); assay: Inhibitor activity on EGFR-dependent cell growth (CellTiter-Glo, 72 h), Ba/F3 EGFR L858R/C797S; conditions: read-out: BaF3 L858R/C797S IC50
T3 construct: expressed in transfected cells; host or cells: Ba/F3 (murine pro-B cells), retroviral transduction, puromycin selection, IL3-independent pool
How it was run: (§2)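 Steps: seed Ba/F3 EGFR-mutant pools (800 cells/well FQEA and exon 19del; 600 L858R/C797S; 400 L858R). Add 120 nL of serially diluted compound and incubate 72 h. Equilibrate to room temperature, add CellTiter-Glo and read after 30 min. Fit IC50.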

[4] = target: T4, EGFR exon 20 FQEA Ins A763_V764 (Ba/F3 cells) (Homo sapiens, UniProt P00533, INS763FQEA); assay: Inhibitor activity on EGFR-dependent cell growth (CellTiter-Glo, 72 h), Ba/F3 EGFR exon 20 FQEA Ins; conditions: read-out: BaF3 FQEA IC50
T4 construct: expressed in transfected cells; host or cells: Ba/F3 (murine pro-B cells), retroviral transduction, puromycin selection, IL3-independent pool
How it was run: as §2

[5] = target: T5, EGFR exon 20 NPG Ins D770_N771 (Ba/F3 cells) (Homo sapiens, UniProt P00533, INS770NPG); assay: Inhibitor activity on EGFR phosphorylation (pEGFR AlphaLISA, 2 h), Ba/F3 EGFR exon 20 NPG Ins
T5 construct: expressed in transfected cells; host or cells: Ba/F3 (murine pro-B cells), retroviral transduction, puromycin selection, IL3-independent pool
How it was run: as §1

[6] = target: EGFR (CUTO14 cells) (Homo sapiens, UniProt P00533); assay: Inhibitor activity on EGFR phosphorylation (pEGFR AlphaLISA, 2 h), CUTO14 cells
How it was run: as §1

[7] = target: T6, EGFR exon 20 ASV Ins V769_D770 (Ba/F3 cells) (Homo sapiens, UniProt P00533, INS769ASV); assay: Inhibitor activity on EGFR phosphorylation (pEGFR AlphaLISA, 2 h), Ba/F3 EGFR exon 20 ASV Ins; conditions: EGFR phosphorylation, AlphaLISA, 2 hours; read-out: ASV IC50 (pEGFR)
T6 construct: expressed in transfected cells; host or cells: Ba/F3 (murine pro-B cells), retroviral transduction, puromycin selection, IL3-independent pool
How it was run: as §1

[8] = target: T7, EGFR exon 20 SVD Ins D770_N771 (Ba/F3 cells) (Homo sapiens, UniProt P00533, INS770SVD); assay: Inhibitor activity on EGFR-dependent cell growth (CellTiter-Glo, 72 h), Ba/F3 EGFR exon 20 SVD Ins; conditions: read-out: BaF3 SVD IC50
T7 construct: expressed in transfected cells; host or cells: Ba/F3 (murine pro-B cells), retroviral transduction, puromycin selection, IL3-independent pool
How it was run: (§3)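 IC50s derive from a sigmoidal dose–response fit of CellTiter-Glo signal. The signal was normalised between […]-treated cells and cell-free medium. Ba/F3 mutant-EGFR cells, seeded at 400–800/well depending on the line, had 72 h of exposure to a 10-point, 3-fold compound series.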

[9] = target: T2, EGFR exon 19del (Ba/F3 cells); assay: Inhibitor activity on EGFR-dependent cell growth (CellTiter-Glo, 72 h), Ba/F3 EGFR exon 19del; conditions: Ba/F3 EGFR exon 19del cell growth, read-out: BaF3 Del19 IC50
How it was run: as §2

[10] = target: T7, EGFR exon 20 SVD Ins D770_N771 (Ba/F3 cells); assay: Inhibitor activity on EGFR phosphorylation (pEGFR AlphaLISA, 2 h), Ba/F3 EGFR exon 20 SVD Ins
Excerpt: Example B. Inhibitor Activity on EGFR phosphorylation (pEGFR)
EGFR mutant Ba/F3 cells were generated by transduction with retrovirus containing vectors expressing EGFR L858R, EGFR exon 19del, EGFR L858R/C797S, EGFR exon 20 NPG Ins D770_N771, EGFR exon 20 ASV Ins V769_D770, or EGFR exon 20 SVD Ins D770_N771 genes along with a puromycin selection marker. Transduced cells are selected with puromycin for 7 days and are then be transferred into culture media without Interleukin 3 (IL3). Surviving cells are confirmed to express EGFR by Western blot and maintained as a pool. CUTO14 cells were obtained from Dr. Robert C. Doebele at the University of Colorado. The IC50 date are included in Table 6 and Table 7.
1.1 Cells are harvested from flask into cell culture medium and the cell number counted.
1.2 Cells are diluted with culture medium to the desired density and 40 μL of cell suspension is added into each well of 384-well cell culture plate and the seeding density is 50K cells/well (Ba/F3) or 12.5K cells/well (CUTO14).
2 Compound Preparation and Treatment
2.1 Test compounds are dissolved to 10 mM in a DMSO stock solution. 45 μL of stock solution is transferred to a 384 polypropylene plate (pp-plate). Perform 3-fold, 10-point dilution via transferring 15 μL compound into 30 μL DMSO using a TECAN (EVO200) liquid handler.
2.2 Spin plates at room temperature at 1,000 RPM for 1 minute.
2.3 Transfer 5 nL of diluted compound from compound source plate into the cell plate.
2.4 After compound treatment for 2 hours, perform pEGFR detection by AlphaLISA for compound treatment plates as described in “Detection” section.
3 Detection by pEGFR AlphaLISA (Perkin-Elmer)
3.1 Plates are removed from incubators and equilibrated at room temperature for 10 minutes, and media was removed
3.2 10 μL of lysis buffer is added and plates shaken at 600 rpm for 1 hr.
3.3 Prepare acceptor mix just before use and dispense 5 μL of acceptor mix to all the wells. Shake 350 rpm for Ihr in the dark
3.4 Prepare donor mix under low light conditions prior to use. Dispense 5 μL of donor mix to all the wells. Mix well on the shaker, seal and wrap in aluminum foil and incubate 1.5 hrs at room temperature in the dark
3.5 Transfer 18.5 μL mixture to OptiPlate 384, and read using an Envision. The IC50 date were included in Table 6 and Table 7.

[11] = target: T3, EGFR L858R/C797S (Ba/F3 cells); assay: Inhibitor activity on EGFR phosphorylation (pEGFR AlphaLISA, 2 h), Ba/F3 EGFR L858R/C797S
How it was run: as §1

[12] = target: T6, EGFR exon 20 ASV Ins V769_D770 (Ba/F3 cells); assay: Inhibitor activity on EGFR-dependent cell growth (CellTiter-Glo, 72 h), Ba/F3 EGFR exon 20 ASV Ins; conditions: read-out: BaF3 ASV IC50
How it was run: as §3

[13] = target: T5, EGFR exon 20 NPG Ins D770_N771 (Ba/F3 cells); assay: Inhibitor activity on EGFR-dependent cell growth (CellTiter-Glo, 72 h), Ba/F3 EGFR exon 20 NPG Ins; conditions: read-out: BaF3 NPG IC50
How it was run: as §3

[14] = target: T8, EGFR L858R (Ba/F3 cells) (Homo sapiens, UniProt P00533, L858R); assay: Inhibitor activity on EGFR phosphorylation (pEGFR AlphaLISA, 2 h), Ba/F3 EGFR L858R
T8 construct: expressed in transfected cells; host or cells: Ba/F3 (murine pro-B cells), retroviral transduction, puromycin selection, IL3-independent pool
How it was run: as §1

[15] = target: T8, EGFR L858R (Ba/F3 cells); assay: Inhibitor activity on EGFR-dependent cell growth (CellTiter-Glo, 72 h), Ba/F3 EGFR L858R; conditions: read-out: BaF3 L858R IC50
How it was run: as §2

Sequence of EGFR (CUTO14 cells) (P00533 with tags, fused parts or gaps DUP767-769): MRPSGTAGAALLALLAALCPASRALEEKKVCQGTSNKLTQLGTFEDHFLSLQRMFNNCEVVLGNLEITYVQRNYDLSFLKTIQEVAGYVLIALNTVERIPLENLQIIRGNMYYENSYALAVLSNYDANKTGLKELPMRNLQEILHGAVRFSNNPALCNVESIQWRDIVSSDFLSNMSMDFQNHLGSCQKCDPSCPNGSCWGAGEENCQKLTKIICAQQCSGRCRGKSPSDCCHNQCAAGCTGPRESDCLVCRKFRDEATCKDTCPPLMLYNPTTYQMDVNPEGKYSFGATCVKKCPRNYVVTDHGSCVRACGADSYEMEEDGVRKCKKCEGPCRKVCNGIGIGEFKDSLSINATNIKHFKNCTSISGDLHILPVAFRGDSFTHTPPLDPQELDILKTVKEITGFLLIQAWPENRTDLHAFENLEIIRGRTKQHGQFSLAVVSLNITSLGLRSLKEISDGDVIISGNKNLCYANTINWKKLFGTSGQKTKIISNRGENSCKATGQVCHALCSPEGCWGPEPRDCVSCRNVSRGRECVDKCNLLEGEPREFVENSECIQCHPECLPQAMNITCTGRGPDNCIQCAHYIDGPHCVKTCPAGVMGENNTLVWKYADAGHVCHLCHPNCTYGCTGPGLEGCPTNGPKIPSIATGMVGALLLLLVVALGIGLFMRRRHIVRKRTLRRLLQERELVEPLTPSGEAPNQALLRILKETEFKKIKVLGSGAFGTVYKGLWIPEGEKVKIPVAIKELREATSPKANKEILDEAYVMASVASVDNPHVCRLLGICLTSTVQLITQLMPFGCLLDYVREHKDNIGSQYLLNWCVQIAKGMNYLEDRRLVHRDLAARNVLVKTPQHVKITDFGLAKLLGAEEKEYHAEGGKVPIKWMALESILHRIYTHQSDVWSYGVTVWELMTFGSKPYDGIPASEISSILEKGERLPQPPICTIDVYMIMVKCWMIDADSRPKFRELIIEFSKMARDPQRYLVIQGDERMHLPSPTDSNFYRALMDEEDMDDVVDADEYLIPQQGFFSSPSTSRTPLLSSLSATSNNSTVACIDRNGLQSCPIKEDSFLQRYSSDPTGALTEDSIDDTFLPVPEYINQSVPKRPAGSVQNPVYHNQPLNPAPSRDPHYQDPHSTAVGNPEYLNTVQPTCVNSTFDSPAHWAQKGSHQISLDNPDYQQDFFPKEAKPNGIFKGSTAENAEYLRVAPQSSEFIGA
T5 sequence (P00533 with tags, fused parts or gaps INS770NPG): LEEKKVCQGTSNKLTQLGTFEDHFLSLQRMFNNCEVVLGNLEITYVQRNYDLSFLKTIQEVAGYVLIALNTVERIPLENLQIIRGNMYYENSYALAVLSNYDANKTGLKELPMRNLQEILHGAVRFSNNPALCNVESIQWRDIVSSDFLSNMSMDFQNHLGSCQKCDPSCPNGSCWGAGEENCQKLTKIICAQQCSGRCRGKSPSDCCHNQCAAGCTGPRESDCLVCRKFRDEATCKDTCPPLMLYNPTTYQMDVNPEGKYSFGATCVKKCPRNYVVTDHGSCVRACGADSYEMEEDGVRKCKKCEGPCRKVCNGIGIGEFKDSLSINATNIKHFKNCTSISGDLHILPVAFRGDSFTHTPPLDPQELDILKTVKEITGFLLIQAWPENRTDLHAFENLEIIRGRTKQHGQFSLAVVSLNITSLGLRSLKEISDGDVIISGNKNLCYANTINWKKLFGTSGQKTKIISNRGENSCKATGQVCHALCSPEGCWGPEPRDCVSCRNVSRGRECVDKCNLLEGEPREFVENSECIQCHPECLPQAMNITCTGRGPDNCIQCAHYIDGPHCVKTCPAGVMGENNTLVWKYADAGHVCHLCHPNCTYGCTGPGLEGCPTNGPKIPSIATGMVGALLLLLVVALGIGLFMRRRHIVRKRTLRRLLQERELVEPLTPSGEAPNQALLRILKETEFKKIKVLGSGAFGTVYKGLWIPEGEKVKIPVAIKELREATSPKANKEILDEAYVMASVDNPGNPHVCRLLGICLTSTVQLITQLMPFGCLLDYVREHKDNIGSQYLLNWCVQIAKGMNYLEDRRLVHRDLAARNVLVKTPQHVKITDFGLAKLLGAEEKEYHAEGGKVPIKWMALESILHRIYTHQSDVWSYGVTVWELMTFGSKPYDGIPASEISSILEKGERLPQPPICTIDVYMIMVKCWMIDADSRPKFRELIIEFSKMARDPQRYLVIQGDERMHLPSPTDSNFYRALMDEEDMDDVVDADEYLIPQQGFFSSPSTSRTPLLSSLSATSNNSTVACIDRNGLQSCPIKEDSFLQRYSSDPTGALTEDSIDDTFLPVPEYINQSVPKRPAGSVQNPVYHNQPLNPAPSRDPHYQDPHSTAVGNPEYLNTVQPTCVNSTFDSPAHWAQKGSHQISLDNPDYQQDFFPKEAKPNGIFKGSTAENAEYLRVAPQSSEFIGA
T2 sequence (P00533 with tags, fused parts or gaps DEL746-750): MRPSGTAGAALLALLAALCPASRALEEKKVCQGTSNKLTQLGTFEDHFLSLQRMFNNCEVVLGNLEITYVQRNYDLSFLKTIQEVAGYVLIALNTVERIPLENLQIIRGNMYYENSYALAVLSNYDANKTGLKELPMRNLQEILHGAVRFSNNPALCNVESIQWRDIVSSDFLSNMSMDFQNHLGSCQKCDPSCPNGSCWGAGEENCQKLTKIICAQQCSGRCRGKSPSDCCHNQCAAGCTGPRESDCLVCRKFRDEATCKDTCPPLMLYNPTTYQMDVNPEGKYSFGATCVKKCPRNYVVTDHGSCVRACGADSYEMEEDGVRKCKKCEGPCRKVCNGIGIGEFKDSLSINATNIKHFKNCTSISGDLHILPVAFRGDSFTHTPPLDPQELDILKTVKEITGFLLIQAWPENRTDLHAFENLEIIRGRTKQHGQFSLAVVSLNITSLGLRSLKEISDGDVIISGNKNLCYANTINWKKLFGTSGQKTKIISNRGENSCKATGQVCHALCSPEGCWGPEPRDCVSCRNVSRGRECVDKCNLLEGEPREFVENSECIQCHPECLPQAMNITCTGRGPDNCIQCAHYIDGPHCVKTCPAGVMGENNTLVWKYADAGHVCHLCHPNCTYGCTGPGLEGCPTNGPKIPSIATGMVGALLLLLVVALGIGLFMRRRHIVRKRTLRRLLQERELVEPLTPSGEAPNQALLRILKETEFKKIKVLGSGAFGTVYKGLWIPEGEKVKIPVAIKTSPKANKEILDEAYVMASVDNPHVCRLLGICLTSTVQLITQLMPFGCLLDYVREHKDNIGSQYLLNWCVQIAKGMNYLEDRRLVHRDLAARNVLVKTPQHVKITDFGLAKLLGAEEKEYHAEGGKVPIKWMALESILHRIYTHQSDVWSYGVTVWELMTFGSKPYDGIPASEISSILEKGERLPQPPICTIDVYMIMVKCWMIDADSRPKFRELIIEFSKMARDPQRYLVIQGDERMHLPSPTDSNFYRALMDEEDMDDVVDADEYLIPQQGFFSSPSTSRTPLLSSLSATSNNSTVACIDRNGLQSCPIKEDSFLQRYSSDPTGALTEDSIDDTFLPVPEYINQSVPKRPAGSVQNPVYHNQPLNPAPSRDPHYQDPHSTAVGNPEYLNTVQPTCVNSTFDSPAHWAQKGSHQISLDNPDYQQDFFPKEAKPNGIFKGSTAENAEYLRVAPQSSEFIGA
T3 sequence (P00533 25-1210 C797S/L858R): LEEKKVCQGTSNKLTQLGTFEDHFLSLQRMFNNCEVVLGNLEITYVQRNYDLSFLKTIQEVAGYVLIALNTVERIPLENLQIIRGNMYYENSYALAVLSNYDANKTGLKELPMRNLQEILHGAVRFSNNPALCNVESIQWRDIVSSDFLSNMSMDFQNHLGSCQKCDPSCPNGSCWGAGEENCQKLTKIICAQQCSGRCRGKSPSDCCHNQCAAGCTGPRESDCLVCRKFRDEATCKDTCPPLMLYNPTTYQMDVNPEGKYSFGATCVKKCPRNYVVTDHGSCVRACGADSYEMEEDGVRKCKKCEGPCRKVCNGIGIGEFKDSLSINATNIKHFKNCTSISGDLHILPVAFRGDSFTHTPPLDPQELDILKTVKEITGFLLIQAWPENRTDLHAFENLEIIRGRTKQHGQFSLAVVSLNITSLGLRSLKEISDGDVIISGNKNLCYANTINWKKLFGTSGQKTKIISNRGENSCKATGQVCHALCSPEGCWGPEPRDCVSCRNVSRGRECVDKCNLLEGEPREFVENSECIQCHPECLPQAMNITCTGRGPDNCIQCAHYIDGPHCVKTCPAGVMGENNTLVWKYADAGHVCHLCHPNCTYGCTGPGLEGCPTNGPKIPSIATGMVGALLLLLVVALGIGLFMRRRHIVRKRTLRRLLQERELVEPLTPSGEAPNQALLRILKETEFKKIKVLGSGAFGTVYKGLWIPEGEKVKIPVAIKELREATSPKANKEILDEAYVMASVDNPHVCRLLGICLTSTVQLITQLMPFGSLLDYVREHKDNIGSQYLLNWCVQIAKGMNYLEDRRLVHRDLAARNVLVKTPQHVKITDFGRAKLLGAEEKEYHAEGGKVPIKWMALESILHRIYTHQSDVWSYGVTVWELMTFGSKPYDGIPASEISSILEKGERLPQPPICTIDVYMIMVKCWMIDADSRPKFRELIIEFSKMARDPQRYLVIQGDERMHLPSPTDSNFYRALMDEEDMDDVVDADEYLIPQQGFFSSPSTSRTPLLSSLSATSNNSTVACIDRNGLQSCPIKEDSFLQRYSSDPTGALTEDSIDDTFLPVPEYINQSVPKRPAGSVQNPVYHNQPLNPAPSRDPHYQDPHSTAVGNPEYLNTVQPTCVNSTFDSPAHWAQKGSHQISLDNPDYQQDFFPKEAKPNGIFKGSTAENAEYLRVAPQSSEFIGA

pIC50 [1]	pIC50 [2]	pIC50 [3]	pIC50 [4]	pIC50 [5]	pIC50 [6]	pIC50 [7]	pIC50 [8]	pIC50 [9]	pIC50 [10]	pIC50 [11]	pIC50 [12]	pIC50 [13]	pIC50 [14]	pIC50 [15]	Structure (SMILES)
6.00 to 7.00	> 7.00	> 7.00	> 7.00	> 7.00	> 7.00	> 7.00	> 7.00	> 7.00	> 7.00	> 7.00	> 7.00	> 7.00	> 7.00	> 7.00	COCC[C@H]1CNC(=O)c2c1[nH]c(-c1ccnc(C)n1)c2Nc1cccc(Cl)c1OC [463b]
> 7.00	> 7.00	> 7.00	> 7.00	> 7.00	> 7.00	> 7.00	> 7.00	> 7.00	> 7.00	> 7.00	> 7.00	> 7.00	> 7.00	> 7.00	COc1c(F)cccc1Nc1c(-c2ccncc2F)[nH]c2c1C(=O)NCC2C[C@@H]1COCCO1 (single isomer, unassigned) [Compound 566]
6.00 to 7.00	> 7.00	> 7.00	> 7.00	> 7.00	> 7.00	> 7.00	> 7.00	> 7.00	> 7.00	> 7.00	> 7.00	> 7.00	> 7.00	> 7.00	COc1c(Cl)cccc1Nc1c(-c2ccncc2F)[nH]c2c1C(=O)NC[C@@]21CCN(CC(F)(F)F)C1 [compound 817]
6.00 to 7.00	> 7.00	> 7.00	> 7.00	> 7.00	> 7.00	> 7.00	> 7.00	> 7.00	> 7.00	> 7.00	> 7.00	> 7.00	> 7.00	> 7.00	COCC[C@@H]1CNC(=O)c2c1[nH]c(-c1ccncn1)c2Nc1cccc(Cl)c1OC [445a]
